Source: ChEMBL document CHEMBL3885861, “Open TG-GATES”

Species: Rattus norvegicus
Test: Open TG-GATES - Regimen: Single
Assay type: toxicity, organism-based, Sprague-Dawley
Set-up: regimen Single, gender Male, age 6 weeks
Conditions: in vivo, po, 0 mg/kg, route gavage, dose level Control; for APTT / Bas / Eos / Fbg / Hb / Ht / Lym / MCH / MCHC / MCV / Mono / Neu / PT / Plat / RBC / Ret / WBC: tissue Blood; for KIDNEY_L / KIDNEY_R / KIDNEY_TOTAL: tissue Kidney; for LIVER: tissue Liver; for A/G / ALP / ALT / AST / BUN / CRE / Ca / Cl / DBIL / GLC / IP / K / LDH / Na / PL / RALB / TBIL / TC / TG / TP / gamma-GTP: tissue Plasma

Molecule `CC(=O)Oc1cc(C(C)C)c(OCCN(C)C)cc1C` [MOXISYLYTE] has a TERMINAL_BW (3 h) of 216.6 g, an APTT (3 h) of 21.3 s and a Bas (3 h) of 0%. It also gave an Eos (3 h) of 1%, a Fbg (3 h) of 307.8 mg/dL and a Hb (3 h) of 13 g/dL. The Ht (3 h) was 37.8%, the Lym (3 h) was 76.6% and the MCH (3 h) was 21.2 pg. For the same molecule, the MCHC (3 h) was 34.4%, the MCV (3 h) was 61.6 fL and the Mono (3 h) was 2.4%. It also gave a Neu (3 h) of 19.2%, a PT (3 h) of 16.1 s and a Plat (3 h) of 118.3 x10_4/uL. The RBC (3 h) was 614.4 x10_4/ul, the Ret (3 h) was 8.8% and the WBC (3 h) was 111.5 x10_2/uL. For the same molecule, the KIDNEY_L (3 h) was 0.9 g, the KIDNEY_R (3 h) was 0.9 g and the KIDNEY_TOTAL (3 h) was 1.9 g. The LIVER (3 h) was 9.9 g, the A/G (3 h) was 1.3 and the ALP (3 h) was 1431.6 IU/L. For the same molecule, the ALT (3 h) was 41 IU/L, the AST (3 h) was 73.6 IU/L and the BUN (3 h) was 14.6 mg/dL. The CRE (3 h) was 0.2 mg/dL, the Ca (3 h) was 10.8 mg/dL and the Cl (3 h) was 106 meq/L. It also gave a DBIL (3 h) of 0.004 mg/dL, a GLC (3 h) of 186.8 mg/dL and an IP (3 h) of 7.7 mg/dL. It also gave a K (3 h) of 4.3 meq/L, an LDH (3 h) of 263.8 IU/L and a Na (3 h) of 141.6 meq/L. For the same molecule, the PL (3 h) was 137.4 mg/dL, the RALB (3 h) was 3 g/dL and the TBIL (3 h) was 0.02 mg/dL. It also gave a TC (3 h) of 79.8 mg/dL, a TG (3 h) of 57 mg/dL and a TP (3 h) of 5.3 g/dL. It also gave a gamma-GTP (3 h) of 1 IU/L, a TERMINAL_BW (6 h) of 204.4 g and an APTT (6 h) of 20.5 s. For the same molecule, the Bas (6 h) was 0%, the Eos (6 h) was 1% and the Fbg (6 h) was 338.6 mg/dL. For the same molecule, the Hb (6 h) was 13.7 g/dL, the Ht (6 h) was 39.5% and the Lym (6 h) was 80.2%. It also gave an MCH (6 h) of 21.4 pg, an MCHC (6 h) of 34.6% and an MCV (6 h) of 61.9 fL. The Mono (6 h) was 1.8%, the Neu (6 h) was 16.6% and the PT (6 h) was 16.4 s. For the same molecule, the Plat (6 h) was 129.2 x10_4/uL, the RBC (6 h) was 638.2 x10_4/ul and the Ret (6 h) was 8.1%. The WBC (6 h) was 99.5 x10_2/uL, the KIDNEY_L (6 h) was 0.9 g and the KIDNEY_R (6 h) was 1 g. For the same molecule, the KIDNEY_TOTAL (6 h) was 1.9 g, the LIVER (6 h) was 8.8 g and the A/G (6 h) was 1.3. For the same molecule, the ALP (6 h) was 1524.2 IU/L, the ALT (6 h) was 40.2 IU/L and the AST (6 h) was 76.4 IU/L. For the same molecule, the BUN (6 h) was 10.8 mg/dL, the CRE (6 h) was 0.1 mg/dL and the Ca (6 h) was 10.6 mg/dL. For the same molecule, the Cl (6 h) was 106.6 meq/L, the DBIL (6 h) was 0.024 mg/dL and the GLC (6 h) was 183.4 mg/dL. It also gave an IP (6 h) of 8.9 mg/dL, a K (6 h) of 4.4 meq/L and an LDH (6 h) of 273 IU/L. The Na (6 h) was 141.4 meq/L, the PL (6 h) was 125.4 mg/dL and the RALB (6 h) was 3.1 g/dL. It also gave a TBIL (6 h) of 0.016 mg/dL, a TC (6 h) of 71.4 mg/dL and a TG (6 h) of 47.8 mg/dL. For the same molecule, the TP (6 h) was 5.4 g/dL, the gamma-GTP (6 h) was 1.2 IU/L and the TERMINAL_BW (9 h) was 211.6 g. For the same molecule, the APTT (9 h) was 20.8 s, the Bas (9 h) was 0% and the Eos (9 h) was 1%. It also gave a Fbg (9 h) of 295.6 mg/dL, a Hb (9 h) of 13.2 g/dL and a Ht (9 h) of 38.3%. For the same molecule, the Lym (9 h) was 82.2%, the MCH (9 h) was 21.6 pg and the MCHC (9 h) was 34.4%. It also gave an MCV (9 h) of 62.7 fL, a Mono (9 h) of 2% and a Neu (9 h) of 14.8%. The PT (9 h) was 16.1 s, the Plat (9 h) was 114.1 x10_4/uL and the RBC (9 h) was 611 x10_4/ul. For the same molecule, the Ret (9 h) was 8.2%, the WBC (9 h) was 120.9 x10_2/uL and the KIDNEY_L (9 h) was 1 g. For the same molecule, the KIDNEY_R (9 h) was 1 g, the KIDNEY_TOTAL (9 h) was 1.9 g and the LIVER (9 h) was 8.9 g. For the same molecule, the A/G (9 h) was 1.3, the ALP (9 h) was 1372.2 IU/L and the ALT (9 h) was 36.8 IU/L. For the same molecule, the AST (9 h) was 72 IU/L, the BUN (9 h) was 12.8 mg/dL and the CRE (9 h) was 0.1 mg/dL. For the same molecule, the Ca (9 h) was 10.5 mg/dL, the Cl (9 h) was 106.6 meq/L and the DBIL (9 h) was 0.018 mg/dL. It also gave a GLC (9 h) of 184.8 mg/dL, an IP (9 h) of 9.6 mg/dL and a K (9 h) of 4.5 meq/L. For the same molecule, the LDH (9 h) was 214 IU/L, the Na (9 h) was 142.2 meq/L and the PL (9 h) was 133.2 mg/dL. The RALB (9 h) was 3 g/dL, the TBIL (9 h) was 0.014 mg/dL and the TC (9 h) was 71.8 mg/dL. It also gave a TG (9 h) of 65.4 mg/dL, a TP (9 h) of 5.4 g/dL and a gamma-GTP (9 h) of 1 IU/L. For the same molecule, the TERMINAL_BW (24 h) was 218.4 g, the APTT (24 h) was 20.3 s and the Bas (24 h) was 0%. It also gave an Eos (24 h) of 0.8%, a Fbg (24 h) of 285.6 mg/dL and a Hb (24 h) of 13.6 g/dL. The Ht (24 h) was 39.3%, the Lym (24 h) was 79.2% and the MCH (24 h) was 21.5 pg. It also gave an MCHC (24 h) of 34.5%, an MCV (24 h) of 62.3 fL and a Mono (24 h) of 2.2%. It also gave a Neu (24 h) of 17.4%, a PT (24 h) of 16.2 s and a Plat (24 h) of 118.6 x10_4/uL. For the same molecule, the RBC (24 h) was 631.4 x10_4/ul, the Ret (24 h) was 7.8% and the WBC (24 h) was 102.9 x10_2/uL. For the same molecule, the KIDNEY_L (24 h) was 1 g, the KIDNEY_R (24 h) was 1 g and the KIDNEY_TOTAL (24 h) was 1.9 g. For the same molecule, the LIVER (24 h) was 10 g, the A/G (24 h) was 1.2 and the ALP (24 h) was 1643.4 IU/L. For the same molecule, the ALT (24 h) was 44.8 IU/L, the AST (24 h) was 78.2 IU/L and the BUN (24 h) was 18.4 mg/dL. The CRE (24 h) was 0.2 mg/dL, the Ca (24 h) was 10.9 mg/dL and the Cl (24 h) was 106.8 meq/L. The DBIL (24 h) was 0 mg/dL, the GLC (24 h) was 189 mg/dL and the IP (24 h) was 6.6 mg/dL. The K (24 h) was 4.3 meq/L, the LDH (24 h) was 251.4 IU/L and the Na (24 h) was 142 meq/L. The PL (24 h) was 151.4 mg/dL, the RALB (24 h) was 3.1 g/dL and the TBIL (24 h) was 0.006 mg/dL. For the same molecule, the TC (24 h) was 79.8 mg/dL, the TG (24 h) was 89 mg/dL and the TP (24 h) was 5.7 g/dL. It also gave a gamma-GTP (24 h) of 1.2 IU/L.
